Measured values: PubChem BioAssay AID256 (DTP/NCI, 2004)
Several values for one entry are separate records, joined by “and”; a condition that tells them apart may be missing. Identical values can stand only once. Inconclusive results and toxic doses are left out.

Test system: CD2F1 mice, L1210 leukemia ip, survival T/C
Assay: NCI In Vivo Anticancer Drug Screen. Data for tumor model L1210 Leukemia (intraperitoneal) in CD2F1 (CDF1) mice
Conditions: higher = longer survival
How it was run: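 Antitumor effect is scored in animals hosting a serially transplanted tumor. Values compare compound-dosed animals against vehicle-only controls as a simple quotient.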

[1] = endpoint: mean survival time, dose: 6.25 mg/kg/injection, schedule: Q01DX009 (ip), vehicle: saline with Tween-80
[2] = endpoint: mean survival time, dose: 12.5 mg/kg/injection, schedule: Q01DX009 (ip), vehicle: saline with Tween-80
[3] = endpoint: mean survival time, dose: 25.0 mg/kg/injection, schedule: Q01DX009 (ip), vehicle: saline with Tween-80
[4] = endpoint: mean survival time, dose: 50.0 mg/kg/injection, schedule: Q01DX009 (ip), vehicle: saline with Tween-80
[5] = endpoint: mean survival time, dose: 100.0 mg/kg/injection, schedule: Q01DX009 (ip), vehicle: saline with Tween-80
[6] = endpoint: mean survival time, dose: 200.0 mg/kg/injection, schedule: Q01DX009 (ip), vehicle: saline with Tween-80
[7] = endpoint: mean survival time, dose: 100.0 mg/kg/injection, schedule: Q01DX001 (ip), vehicle: saline with Tween-80
[8] = endpoint: mean survival time, dose: 400.0 mg/kg/injection, schedule: Q01DX009 (ip), vehicle: saline with Tween-80

With `O=C(OCC1OC(n2cnc3c(=S)nc[nH]c32)C(OC(=O)c2ccc([N+](=O)[O-])cc2)C1OC(=O)c1ccc([N+](=O)[O-])cc1)c1ccc([N+](=O)[O-])cc1` (stereo unspecified) the T/C (endpoint: mean survival time, dose: 132.0 mg/kg/injection, schedule: Q01DX009 (ip), vehicle: saline with Tween-80) was 157 % of control.

`O=C(NCc1ccccc1)c1ccccc1/C(=N/O)c1ccccc1` was tested, and the T/C (endpoint: mean survival time, dose: 100.0 mg/kg/injection, schedule: Q01DX001 (ip), vehicle: saline sonified) was 92 % of control, the T/C (endpoint: mean survival time, dose: 200.0 mg/kg/injection, schedule: Q01DX001 (ip), vehicle: saline sonified) was 94 % of control and the T/C (endpoint: mean survival time, dose: 400.0 mg/kg/injection, schedule: Q01DX001 (ip), vehicle: saline sonified) was 88 % of control.

For `CC1(CO)C(O)CCC2(C)C1CCC1CC3CC12CCC3(O)CO` (stereo unspecified), the T/C [1] was 119 % of control and 102 % of control, the T/C [2] was 106 % of control and 109 % of control and the T/C [3] was 110 % of control and 111 % of control. For the same compound, the T/C [4] was 118 % of control and 111 % of control, the T/C [5] was 121 % of control and 122 % of control and the T/C [6] was 114 % of control and 102 % of control.

In the case of `CC(C)N(C=C(C#N)C#N)C(C)C`, the T/C [2] was 91 % of control, the T/C (endpoint: mean survival time, dose: 25.0 mg/kg/injection, schedule: Q01DX001 (ip), vehicle: saline with Tween-80) was 103 % of control and the T/C [3] was 96 % of control. For the same compound, the T/C (endpoint: mean survival time, dose: 50.0 mg/kg/injection, schedule: Q01DX001 (ip), vehicle: saline with Tween-80) was 107 % of control and the T/C [7] was 98 % of control.

For `CCCCCC[Si]`, the T/C (endpoint: mean survival time, dose: 75.0 mg/kg/injection, schedule: Q01DX009 (ip), vehicle: saline with Tween-80) was 94 % of control, the T/C (endpoint: mean survival time, dose: 150.0 mg/kg/injection, schedule: Q01DX009 (ip), vehicle: saline with Tween-80) was 94 % of control and the T/C (endpoint: mean survival time, dose: 300.0 mg/kg/injection, schedule: Q01DX009 (ip), vehicle: saline with Tween-80) was 98 % of control.

`CN(C)CCSCC(OC(=O)c1ccccc1)c1ccccc1` (stereo unspecified) was tested, and the T/C [3] was 102 % of control, the T/C [4] was 98 % of control and the T/C [5] was 100 % of control.

In the case of `COc1ccc(N=C(C)CC(C)=O)cc1`, the T/C (endpoint: mean survival time, dose: 100.0 mg/kg/injection, schedule: Q04DX002 (ip), vehicle: saline with Tween-80) was 98 % of control, the T/C (endpoint: mean survival time, dose: 200.0 mg/kg/injection, schedule: Q04DX002 (ip), vehicle: saline with Tween-80) was 95 % of control and the T/C (endpoint: mean survival time, dose: 400.0 mg/kg/injection, schedule: Q04DX002 (ip), vehicle: saline with Tween-80) was 95 % of control.

For `CC1(C)N=C(N)N=C(N)N1c1ccc(/C=C/C(=O)Nc2cccc(S(=O)(=O)F)c2)cc1`, the T/C [7] was 89 % of control, the T/C (endpoint: mean survival time, dose: 200.0 mg/kg/injection, schedule: Q01DX001 (ip), vehicle: saline with Tween-80) was 95 % of control and the T/C (endpoint: mean survival time, dose: 400.0 mg/kg/injection, schedule: Q01DX001 (ip), vehicle: saline with Tween-80) was 92 % of control.

`Nc1nc(N)c2c(Cl)c(CNc3ccc(Cl)c(Cl)c3)ccc2n1` was tested, and the T/C (endpoint: mean survival time, dose: 3.12 mg/kg/injection, schedule: Q01DX009 (ip), vehicle: saline with Tween-80) was 110 % of control, the T/C (endpoint: mean survival time, dose: 3.13 mg/kg/injection, schedule: Q01DX009 (ip), vehicle: saline with Tween-80) was 98 % of control and the T/C [1] was 114 % of control and 115 % of control. For the same compound, the T/C [3] was 153 % of control, the T/C [4] was 156 % of control and 188 % of control and the T/C [5] was 111 % of control. The T/C (endpoint: median survival time, dose: 6.25 mg/kg/injection, schedule: Q01DX009 (ip), vehicle: saline with Tween-80) was 102 % of control and 110 % of control, the T/C (endpoint: median survival time, dose: 25.0 mg/kg/injection, schedule: Q01DX009 (ip), vehicle: saline with Tween-80) was 150 % of control and 153 % of control and the T/C (endpoint: median survival time, dose: 50.0 mg/kg/injection, schedule: Q01DX005 (ip), vehicle: saline with Tween-80) was 159 % of control. For the same compound, the T/C (endpoint: median survival time, dose: 50.0 mg/kg/injection, schedule: Q01DX009 (ip), vehicle: saline with Tween-80) was 175 % of control and 198 % of control, the T/C (endpoint: median survival time, dose: 83.33 mg/kg/injection, schedule: Q01DX005 (ip), vehicle: saline with Tween-80) was 202 % of control and the T/C (endpoint: median survival time, dose: 83.63 mg/kg/injection, schedule: Q01DX005 (ip), vehicle: saline with Tween-80) was 230 % of control. For the same compound, the T/C (endpoint: median survival time, dose: 138.89 mg/kg/injection, schedule: Q01DX005 (ip), vehicle: saline with Tween-80) was 179 % of control, the T/C (endpoint: median survival time, dose: 139.39 mg/kg/injection, schedule: Q01DX005 (ip), vehicle: saline with Tween-80) was 151 % of control and the T/C (endpoint: median survival time, dose: 232.31 mg/kg/injection, schedule: Q01DX005 (ip), vehicle: saline with Tween-80) was 117 % of control.

For `O=C(CC(O)(C(F)(F)F)C(F)(F)F)c1ccccc1Cl`, the T/C [5] was 100 % of control, the T/C [6] was 115 % of control and the T/C [8] was 107 % of control.

With `O=C(O)c1cc(N=Nc2ccc3ccccc3c2)ccc1O` the T/C [5] was 103 % of control, the T/C [6] was 106 % of control and the T/C [8] was 98 % of control.

`Clc1cc(Cl)cc(-c2cc(Cl)cc(Cl)c2)c1` was tested, and the T/C (endpoint: mean survival time, dose: 100.0 mg/kg/injection, schedule: Q01DX001 (ip), vehicle: carboxymethylcellulose (CMC)) was 101 % of control, the T/C (endpoint: mean survival time, dose: 200.0 mg/kg/injection, schedule: Q01DX001 (ip), vehicle: carboxymethylcellulose (CMC)) was 92 % of control and the T/C (endpoint: mean survival time, dose: 400.0 mg/kg/injection, schedule: Q01DX001 (ip), vehicle: carboxymethylcellulose (CMC)) was 95 % of control.
